Laboratory results taken from patent US11612586B2, “Indole regulation of antigen presenting cells” (THE TEXAS A&M UNIVERSITY SYSTEM, priority 2016, dated 2023).

Tests used:
Thy1.2+CD4+ T cells = assay: In vivo T cell activation by conditioned, OVA-loaded BMDCs transferred to B6-Thy1.1 mice; set-up: species or system mouse; conditions: mice receiving BMDCs conditioned with indole
Text: FIGS. 17A-17C graphically illustrate that indole-conditioned DCs induce lower T cell activation overall but a greater proportion of Tregs in spleen compared to control. Naïve CD4+CD25− T cells from OT-II (Thy1.2) mice and OVA323-339-loaded BMDCs conditioned with indole, RA, or DMF were transferred to B6-Thy1.1 mice. After 7 days, tissues were harvested and stained for flow cytometric analysis. Data includes total expansion of Thy1.2+CD4+ T cells (FIG. 17A), percentage of Foxp3+CD4+ T cells of expanded T cells (FIG. 17B), and MFI of Foxp3+CD4+ T cells of expanded T cells (FIG. 17C). n=4 mice/group.
To address the functionality of indole DC-induced Tregs, an in vivo T cell activation system was employed. The pan T cell surface antigen, Thy1, has congenic alleles, Thy1.1 and Thy1.2, which can be used to differentiate donor and recipient T cells. Naïve CD4+CD25− T cells were purified from OT-II (Thy1.2) mice, then transferred them to recipient Thy1.1 mice. Indole-treated, OVA323-339 peptide-loaded BMDCs (Thy1.2) was subsequently transferred to the same recipient Thy1.1 mice. After five days, the recipient mice were sacrificed to assess activation of the transferred naïve T cells, which could only be activated by the transferred, peptide-loaded DCs and are identifiable by the Thy1.2 T cell surface antigen. Cellular populations from the spleen, mesenteric lymph nodes, and pooled distal lymph nodes (axial and inguinal), were examined limiting the analysis to CD4+ T cells bearing the Thy1.2 allele (donor-derived). Importantly, the DCs transferred without OVA peptide loading (negative control) induced virtually undetectable T cell activation. This confirms the specificity of the present model, ensuring that T cell activation in Thy1.2 T cells was solely due to interaction with our experimental BMDCs.
Naïve CD4+CD25− T cells from spleens and lymph nodes of OT-II mice were isolated by column purification as described above and resuspended in sterile Hanks Balanced Saline Solution (HBSS). […]

[1] = tested on: Salmonella Pathogenicity Island-1 (SPI-1) genes; assay: Expression of Salmonella Pathogenicity Island-1 genes; type: cell-based, Salmonella Typhimurium

c1ccc2[nH]ccc2c1 [Indole, indole]
Foxp3 mean fluorescence intensity of splenic Tregs (Thy1.2+CD4+ T cells): higher mean fluorescence intensity | Tregs in the spleen of newly activated T cells compared to RA-DCs or DMF-DCs (Thy1.2+CD4+ T cells): two times more Tregs | T cell expansion, less than controls (Thy1.2+CD4+ T cells; spleen, mesenteric and distal lymph nodes): more than 2 fold | expression of four SPI-1 genes involved in invasion [1]: decrease in expression | effect of short chain fatty acids on attenuation of SPI-1 gene expression ([1]; indole together with short chain fatty acids): synergistically enhanced
